The text below walks through data of patent publication US4462993A, “Aminoacridine-α, β-(D)- or -(L)-N-glycoside derivatives, the salts thereof and a process for the preparation of such compounds” (Biogal Gyogyszergyar, priority 1981, dated 1984).

Each structure is given as a SMILES string. Read-outs that look alike come from different tables or passages of the source.

For series [1] the following is noted: decomposition product; cited from earlier work.
Series [2] can be described thus: toxicity measurements at CFLP-mice (LD50). Particulars: mouse, in vivo, female CFLP-mice. The text has this:
By the incorporation of one or more sugar residue(s) the toxicity of the compounds is influenced positively, too. The results of toxicity measurements carried out at CFLP-mice (female) (Litchfield, J. T. and Wilcoxon F.: J. Pharmacol. 96, 99 (1949) are summarized in the following Table.

In another series the test system is Ehrlich ascites tumor. To be noted: Schumelfelder et al., Z. Krebsforsch, 63, 129 (1959); cited from earlier work.
For series [3] the following is noted: known; cited from earlier work.
The next series deals with wounds. To be noted: disinfecting of wounds, World War II; cited from earlier work.
The conditions of series [4]: literature; cited from earlier work.
The subject of the next series is Aspergillus funigatus. In words: efficacy against Aspergillus funigatus. The series is classed as cell-based. The method, then: (§1) The incorporation of the sugar group into the aminoacridine molecule modifies its properties in an unforeseen way. Thus e.g. 3,6-diamino-acridine and 3,6-diamino-10-methyl-acridine are efficacious in concentrations of 50 μg/ml against microorganisme (Bacillus subtilis, Salmonalla typhy-murium, Proteus vulgaris, Escherichia coli, Shigella flexneri etc.) while the diglucoside of the 3,6-diamino-acridine is inefficacious also in concentrations of 500 μg/ml against the named microorganisms. Inversely the aminoacridines are inefficacious against fungi while the diglucoside of 3,6-diamino-10-methyl-acridine is efficacious e.g. against Aspergillus funigatus and Aspergillus niger.

A further series has as its system Aspergillus niger. In words: efficacy against Aspergillus niger. The format is cell-based. As to the method: as §1
Another series has as its system Ehrlich tumor. In words: inhibition and prevention of the Ehrlich tumor in mice and rats. The format is in vivo.
The subject of series [5] is ascites tumor according to Ehrlich. In words: test with the Ehrlich-carcinoma in mice. The format is in vivo. The method, then: A test with the Ehrlich-carcinoma was carried out with 50 mice each as test group and as K control group. The animals were intraperitoneally infected with 5×10^6 cells each of the ascites tumor according to Ehrlich. On the first, second and third day after the infection half of the mice were treated with 12.5 mg/kg.d of 10-methyl-proflavine-diglucoside.

As a reminder, the LD50 is the dose expected to kill half of the subjects tested.

For the molecule `O=c1c2ccccc2[nH]c2cccc([N+](=O)[O-])c12` [1-nitroacridone], the biological activity entry in series [1] was “biologically inactive”.
Consider `OC[C@H]1O[C@@H](Nc2ccc3cc4ccc(N[C@@H]5O[C@H](CO)[C@@H](O)[C@H](O)[C@H]5O)cc4nc3c2)[C@H](O)[C@@H](O)[C@@H]1O` [3,6-diamino-acridine-diglucoside, 3,6-Di-(β-Di-glucopyranosyl-amino)-acridine], for which the LD50 in series [2] (ip, read-out: LD50 i.p.) was found to be 280 mg/kg; in series [2] (iv, read-out: LD50 i.v.) it was 87 mg/kg.
Take `C[n+]1c2cc(N)ccc2cc2ccc(N)cc21` [3,6-diamino-10-methyl-acridine]: the median lethal dose (LD50) was found to be 60 mg/kg in series [2] (ip, read-out: LD50 i.p.) and 14 mg/kg in series [2] (iv, read-out: LD50 i.v.). In addition, the “growth of the Ehrlich ascites tumor” value with Ehrlich ascites tumor is given as “inhibited”. In series [3], the antimicrobial effect entry is recorded as “exert a certain antimicrobial effect”. Also, the “healing of the wound” value in the series with wounds was “slowed down the healing of the wound”. Further, in the series on wounds, the tissue necrosis entry is given as “caused tissue necrosis”. Besides, the “mutation of certain objects” value in series [4] is recorded as “can cause mutation of certain objects”.
Consider `C[n+]1c2cc(N[C@@H]3O[C@H](CO)[C@@H](O)[C@H](O)[C@H]3O)ccc2cc2ccc(N[C@@H]3O[C@H](CO)[C@@H](O)[C@H](O)[C@H]3O)cc21.[Cl-]` [3,6-Di-(β-D-glucopyranosyl-amino)-10-N-methyl-acridinium chloride], for which the efficacy against fungi result with Aspergillus funigatus and in the series on Aspergillus niger was “efficacious” throughout. The “state of the animal concerning its condition” value in the series on Ehrlich tumor (6.25 mg/kg-12.5 mg/kg i.p.) is “improves the state of the animal concerning its condition”. Further, the “development of the Ehrlich tumor” value with Ehrlich tumor (test animals: mice and rats) is recorded as “inhibits the development of the Ehrlich tumor”. Further, in the series on Ehrlich tumor (test animals: mice and rats), the “formation of the Ehrlich tumor” value is “prevents its formation”. Also, the median lethal dose (LD50) was found to be 210 mg/kg in series [2] (ip, read-out: LD50 i.p.) and 37 mg/kg in series [2] (iv, read-out: LD50 i.v.). The “Change of body weight in g on the 7th day” value in series [5] (12.5 mg/kg.d on first, second and third day after infection, 7th day) was “+1.2 g”. Besides, in [5] (12.5 mg/kg.d on first, second and third day after infection, 12th day), the “Change of body weight in g on the 12th day” value was “+2.0 g”. Also, the “Change of body weight in g on the 21st day” value in series [5] (12.5 mg/kg.d on first, second and third day after infection, 21st day) is “+2.6 g”. In addition, the “treated animals still living on the 40th day” value in series [5] (12.5 mg/kg.d, 40th day) was “all treated animals were still living”. For the same molecule, the “Average surviving time” value in series [5] (12.5 mg/kg.d, observation stopped on the 40th day) was determined as 40.0 days.
Regarding `Nc1ccc2cc3ccc(N)cc3nc2c1` [3,6-diamino-acridine, 3,6-diaminoacridine], the LD50 is 84 mg/kg in series [2] (ip, read-out: LD50 i.p.) and 65 mg/kg in series [2] (iv, read-out: LD50 i.v.). Besides, the antimicrobial effect result in series [3] is “exert a certain antimicrobial effect”. For the same molecule, in the series on wounds, the “healing of the wound” value was “slowed down the healing of the wound”. Also, in the series with wounds, the tissue necrosis entry is given as “caused tissue necrosis”. Also, in series [4], the “mutation of certain objects” value is “can cause mutation of certain objects”.
